In US20210122746A1, “FEBRIFUGINE DERIVATIVES” (BRISTOL-MYERS SQUIBB COMPANY, priority 2017, published 2021):
Counter-ions that a name gives are not always drawn.

What was measured:
[1] = molecular target: T1, human ProRS (prolyl tRNA synthetase moiety of glutamyl prolyl tRNA synthetase) (Homo sapiens, UniProt P07814); assay: Assay for inhibitors of prolyl tRNA synthetase activity (ProRS assay, labeled proline incorporation); type: biochemical; conditions: ProRS 20 nM, compounds 10 μM to 0.5 nM, 10 min at 37° C.; read-out: EPR IC50
T1 construct: The prolyl tRNA synthetase moiety (ProRS) in the cDNA of glutamyl prolyl tRNA synthetase was subcloned; 6xHis (N, cleaved yes); made in house; host or cells: E. coli BL21 (DE3)
T1 sequence (P07814 1007-1512 limits assumed): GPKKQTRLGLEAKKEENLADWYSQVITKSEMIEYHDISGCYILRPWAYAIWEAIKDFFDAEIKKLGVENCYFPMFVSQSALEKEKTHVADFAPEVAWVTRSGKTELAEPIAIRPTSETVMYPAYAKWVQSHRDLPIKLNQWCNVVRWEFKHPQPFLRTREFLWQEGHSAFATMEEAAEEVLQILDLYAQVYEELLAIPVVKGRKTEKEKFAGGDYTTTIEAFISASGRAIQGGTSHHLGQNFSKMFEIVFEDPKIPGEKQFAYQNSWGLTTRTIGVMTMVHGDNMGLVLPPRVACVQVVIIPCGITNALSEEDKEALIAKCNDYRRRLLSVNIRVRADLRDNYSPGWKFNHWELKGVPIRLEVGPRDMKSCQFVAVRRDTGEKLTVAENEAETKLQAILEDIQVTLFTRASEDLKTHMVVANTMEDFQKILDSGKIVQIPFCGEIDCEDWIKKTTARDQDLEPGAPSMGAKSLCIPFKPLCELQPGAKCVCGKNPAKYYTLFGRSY
Description: In order to establish the activities of the compounds highlighted above, we determined extent of inhibition of prolyl tRNA synthetase activity in dose response curves to obtain IC50 values.
The prolyl tRNA synthetase moiety (ProRS) in the cDNA of glutamyl prolyl tRNA synthetase was subcloned, tagged with a single biotin, purified and used in the assay. Briefly, human ProRS with a 6× N-terminal His tag in pET28N with TVMV BioP was transformed in E. coli BL21 (DE3) cells, selected, overexpressed and purified using a Ni Seph 6 FF XK 16/20 column in the first stage. Ni-NTA eluates were pooled and treated with TVMV protease, and biotinylated using d-Biotin, MgCl2, ATP and the BirA enzyme. This was rerun through a Ni column as before. The eluates were further enriched and purified using membrane ultrafiltration and a SuperDex 200 XK 16/60 column, and peak fractions were confirmed by SDS-PAGE prior to protein amount determination, aliquoting and storage at −80° C.
ProRS assay was performed in 96 well plates in a final reaction volume of 20 μl, using staggered additions of Tris-Cl (pH 7.5, 60 mM), dithiothreitol (2 mM), ATP (5 mM, pH 7.0), MgCl2 6 mM), ProRS (20 nM, with pre-determined active fraction range) and bovine tRNA (20 μg). Controls and compounds, at various concentrations (10 μM to 0.5 nM), were incubated on ice with enzyme mix for 15 min followed by addition of proline (non-labeled and labeled, 3.96 and 1.04 μM (1 μCi) respectively) to initiate the reaction. Reaction was carried out for 10 min at 37° C. and terminated by addition of TCA (10%, 100 μl). Reaction mix was collected on a Whatman GF/B filter using a vacuum filtration manifold. This filter was washed 3 times with 5% TCA followed by 2 washes with ethanol, air dried, and read using a liquid scintillation counter (TopCount NXT) using MicroScint O. IC50 values were calculated and analyzed using ToolSet (4-parameter plot) and depicted herein.

Rat hepatocytes = assay: GSH trapping assay; type: in vitro ADME; conditions: 30 μM, 24 hr incubation, LC-MS detection of GSH adducts
Method: Rat hepatocytes were isolated from male Sprague-Dawley rats (Vivo Biotech Ltd, HYD, India), weighing 230 to 280 g by the two step collagenase perfusion method (seglen, 1976; Berry M N and Friend D S.1969). Rat hepatocytes were cultured in Dulbecco's Modified Eagle's Medium (DMEM, Gibco®, USA) supplemented with 10^−6M dexamethasone (Gibco®), 5% fetal bovine serum (Gibco®) and cocktail-A mix (CM3000, Gibco®) containing HEPES buffer (PH 7.4), GlutaMAX™, human recombinant insulin, penicillin and streptomycin. Initial cell viability assessed by Trypanblue stain 0.4% (Sigma, UK) and viability more than 80% were considered for culturing. Hepatocytes were seeded in 96 well type-I collagen coated plates (Gibco®) at 4×10^4 cells/well in 100 μL of the culture medium and incubated at 37° C. in 5% CO2 and 95% relative humidity (RH) for 4 hr of cell attachment.
After 4hr incubation, rat hepatocytes were washed twice with pre-warmed (37° C.) DMEM incubation medium supplemented with 10^−7M dexamethasone and cell maintenance cocktail-B (CM4000, Gibco®) solution to remove unattached cells. Post washing hepatocytes were treated with test and reference compounds in incubation medium at single concentration (30 μM) in duplicate and incubate further for 24 hr at 37° C. with 5% CO2 and 95% RH. The final concentration of DMSO in medium was 0.5%.
Post 24 hr incubation, hepatocyte samples were quenched with equal volumes of acetonitrile containing 0.1% formic acid followed by vortex mix, sonicate and centrifuge at 12000 rpm at room temperature for 5 min. Supernatant samples were analyzed for GSH adducts on a C18 reverse-phase column (Xbridge™ Shield, C18, 4.6×150 mm, 3.5 μm) with solvent A (10 mM ammonium formate and 0.1% formic acid/water) and solvent B (0.1% formic acid/acetonitrile).
The column was eluted with 5% B for 5 min and then with a linear gradient to 20% B over 10 min and it was maintained upto 15 min, then it was increased linearly to 40% B upto 27 min and then increase to 90% B upto 29 min, and then equilibrate back the column to 5% B upto 33 min at a flow rate of 0.6 ml/min. The column effluent was directed into the ESI source of a LTQ Velos Orbitrap mass spectrometer (Thermo Fisher Scientific, San Jose, Calif.). The ESI conditions were as follows: sheath gas flow rate, 40 arbitrary units; auxiliary gas, 30 arbitrary units; spray voltage, 4.5 kV; capillary temperature, 230° C.; capillary voltage, 30 V; and tube lens offset, 25 V. Data were acquired in positive ion mode using Xcalibur software (Thermo Fisher Scientific) with one full scan followed by two data-dependent scans of the most intense and the second most intense ions. During the data interpretation the characteristic fragments of neutral loss of glycine (75.0320 Da), pyroglutamic acid (129.0426 Da) and loss of neutral moiety GSH (307.0838 Da) and/or a specific fragment of (GSH+H)^+ (m/z 308.0911) were monitored. Finally, the fragments ions with m/z e.g. 179.0485, 177.0328 and 162.0219 Da, which were derived from the glutathione moiety were used to report GSH positive results.

| SMILES | IC50 [1] [nM] | GSH adduct formation (Rat hepatocytes) |
| --- | --- | --- |
| Cc1cc(Cl)cn2c(=O)c(NC(=O)C[C@H]3NCCC[C@@H]3O)cnc12.Cl [Example 39, N-(7-Chloro-9-methyl-4-oxo-4H-pyrido [1,2-a]pyrimidin-3-yl)-2-[(2R, 3S)-3-hydroxypiperidin-2-yl]acetamide hydrochloride] | 301 | Negative |
| O=C(C[C@H]1NCCC[C@@H]1O)Cn1cnc2cccnc2c1=O [Example 2, 3-{3-[(2R,3S)-3-Hydroxypiperidin-2-yl]-2-oxopropyl}pyrido[3,2-d]pyrimidin-4(3H)-one dihydrochloride] | 15 | Negative |
| Cc1cc(C)c2ncn(CC(=O)C[C@H]3NCCC[C@@H]3O)c(=O)c2n1 [Example 1, 3-{3-[(2R,3S)-3-Hydroxypiperidin-2-yl]-2-oxopropyl}-6,8-dimethylpyrido[3,2-d]pyrimidin-4(3H)-one dihydrochloride] | 28 | Negative |
| Cc1cc(C)c2ncn(CC(=O)C[C@@H]3CCCCN3)c(=O)c2n1.Cl.Cl [Example 10, (S)-6,8-dimethyl-3-(2-oxo-3-(piperidin-2-yl)propyl)pyrido[3,2-d]pyrimidin-4(3H)-one dihydrochloride] | 773 | Negative |
| Cc1cc(-c2cccc(F)c2)cn2c(=O)c(NC(=O)C[C@H]3NCCC[C@@H]3O)cnc12 [Example 40, N-(7-(3-fluorophenyl)-9-methyl-4-oxo-4H-pyrido[1,2-a]pyrimidin-3-yl)-2-((2R,3S)-3-hydroxypiperidin-2-yl)acetamide 2,2,2-trifluoroacetic acid] | 2730 | – |
| Cc1cc(Cl)cc2c(=O)n(CC(=O)CC3CCCCN3)cnc12 (stereo not shown) [Example 3, 6-Chloro-8-methyl-3-[2-oxo-3-(piperidin-2-yl)propyl]quinazolin-4(3H)-one hydrochloride] | 71 | – |
| O=c1c2nc(-c3cccnc3)ccc2ncn1C[C@@H](O)C[C@H]1NCCC[C@@H]1O [Example 29, 3-{(S)-2-hydroxy-3-[(2R,3S)-3-hydroxypiperidin-2-yl]propyl}-6-(pyridin-3-yl)pyrido[3,2-d]pyrimidin-4(3H)-one 2,2,2-trifluoroacetate] | 103 | – |
| Cc1cc(C(C)C)cc2c(=O)n(C[C@@H](O)C[C@@H]3CCCCN3)cnc12 [Example 35, 3-{(S)-2-hydroxy-3-[(S)-piperidin-2-yl]-propyl}-6-isopropyl-8-methylquinazolin-4(3H)-one hydrochloride] | 1390 | – |
| O=C(C[C@H]1NCCC[C@@H]1O)Cn1cnc2ccc(-c3cccc(F)c3)nc2c1=O [Example 7, 6-(3-Fluorophenyl)-3-{3-[(2R,3S)-3-hydroxypiperidin-2-yl]-2-oxopropyl}pyrido[3,2-d]pyrimidin-4(3H)-one dihydrochloride] | 5 | – |
| Cc1cc(C(F)(F)F)nc2c(=O)n(C[C@@H](O)C[C@H]3NCCC[C@@H]3O)cnc12 [Example 31, 3-{(S)-2-hydroxy-3-[(2R,3S)-3-hydroxypiperidin-2-yl]propyl}-8-methyl-6-(trifluoromethyl)pyrido[3,2-d]pyrimidin-4(3H)-one bis(2,2,2-trifluoroacetic acid)] | 416 | Negative |
| Cc1cc(-c2cccc(C(F)(F)F)c2)nc2c(=O)n(C[C@@H](O)C[C@H]3NCCC[C@@H]3O)cnc12 [Example 28, 3-{(2S)-2-hydroxy-3-[(2R,3S)-3-hydroxy-2-piperidyl]propyl}-8-methyl-6-[3-(trifluoromethyl)phenyl]pyrido[3,2-d]pyrimidin-4-one;dihydrochloride] | 27 | – |
| Cc1cc(C(F)(F)F)cc2c(=O)n(CC(=O)C[C@@H]3CCCCN3)cnc12 [Example 19, (S)-8-methyl-3-{2-oxo-3-[piperidin-2-yl]propyl}-6-(trifluoromethyl)quinazolin-4(3H)-one 2,2,2-trifluoroacetate] | 159 | – |
| O=C(C[C@@H]1CCCCN1)Cn1cnc2ccncc2c1=O [Example 20, (S)-3-{2-oxo-3-[piperidin-2-yl-propyl-pyrido(4,3-d)]}pyrimidin-4(3H)-one-dihydrochloride] | 60 | – |
| Cc1cc(C(F)(F)F)nc2c(=O)n(CC(=O)C[C@H]3NCCC[C@@H]3O)cnc12 [Example 13, 3-{3-[(2R,3S)-3-hydroxypiperidin-2-yl]-2-oxopropyl}-8-methyl-6-(trifluoromethyl)pyrido[3,2-d]pyrimidin-4(3H)-one dihydrochloride] | 17 | – |
| O=C(C[C@H]1NCCC[C@@H]1O)Cn1cnc2ccc(-c3cccnc3)nc2c1=O [Example 11, 3-{3-[(2R,3S)-3-hydroxypiperidin-2-yl]-2-oxopropyl}-6-(pyridin-3-yl)pyrido[3,2-d]pyrimidin-4(3H)-one trihydrochloride] | 9 | – |
| O=c1c2nc(-c3cccc(C(F)(F)F)c3)ccc2ncn1C[C@@H](O)C[C@H]1NCCC[C@@H]1O [Example 23, 3-{(S)-2-Hydroxy-3-[(2R,3S)-3-hydroxypiperidin-2-yl]propyl}-6-[3-(trifluoromethyl)phenyl]pyrido[3,2-d]pyrimidin-4(3H)-one dihydrochloride] | 28 | Negative |
